Data set [1] addresses T1, Disintegrin and metalloproteinase domain-containing protein 17 (Homo sapiens, UniProt P78536). The experiment in a line: Inhibition of TACE.
Data set [2] in a line: Selectivity for TACE over MMP1.
The target in data set [3] is T1, Disintegrin and metalloproteinase domain-containing protein 17. Nature of the data set: Inhibition of TACE in human PBMC.
The nature of data set [4]: Selectivity for TACE over MMP2.
Data set [5] in a line: Selectivity for TACE over MMP9.
For data set [6], the target named is Collagenase 3 (Homo sapiens, UniProt P45452). The experiment in a line: Inhibition of MMP13.
Data set [7] deals with T2, Interstitial collagenase (Homo sapiens, UniProt P03956).
T2 sequence (P03956 whole entry): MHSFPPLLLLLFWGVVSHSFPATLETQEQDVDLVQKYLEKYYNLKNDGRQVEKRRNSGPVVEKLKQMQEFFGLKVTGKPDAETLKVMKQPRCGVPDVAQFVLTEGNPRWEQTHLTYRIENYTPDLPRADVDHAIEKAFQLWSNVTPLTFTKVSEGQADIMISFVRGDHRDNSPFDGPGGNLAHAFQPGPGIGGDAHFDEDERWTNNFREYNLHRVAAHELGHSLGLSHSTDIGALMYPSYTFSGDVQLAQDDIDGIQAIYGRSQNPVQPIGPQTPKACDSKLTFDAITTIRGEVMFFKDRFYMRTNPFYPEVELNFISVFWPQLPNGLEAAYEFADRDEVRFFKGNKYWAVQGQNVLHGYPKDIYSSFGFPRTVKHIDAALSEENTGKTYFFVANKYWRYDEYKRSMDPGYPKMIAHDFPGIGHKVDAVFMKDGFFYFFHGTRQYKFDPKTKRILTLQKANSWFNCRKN
The experiment in a line: Inhibition of MMP1.

Data set [8] has as its system Mus musculus. The experiment in a line: Inhibition of TNFalpha production in mouse at 50 mg/kg, po after 1 hr. The class given is functional.
Data set [9] can be described thus: Inhibition of TNFalpha production in whole blood. The class given is functional, tissue-based.
A short description of data set [10]: Oral bioavailability in rat. The class given is ADME, organism-based. Conditions: in vivo.
A short description of data set [11]: Half life in human. The class given is ADME, organism-based. The following applies: in vivo.
The subject of data set [12] is Mus musculus. Nature of the data set: Inhibition of LPS-induced TNFalpha production in po dosed mouse. Format: functional.
Data set [13] in a line: Oral bioavailability in dog. The class given is ADME, organism-based, Canis lupus familiaris. The following applies: in vivo.
In data set [14] the test system is Rattus norvegicus. The experiment in a line: Inhibition of LPS-induced TNFalpha production in po dosed rat plasma. Format: functional.
For data set [15], the system named is Blood. Nature of the data set: Inhibition of TNFalpha production in human whole blood. Format: functional, tissue-based.
In data set [16] the target is Disintegrin and metalloproteinase domain-containing protein 17 (Sus scrofa, UniProt O77636). The experiment in a line: Inhibition of pig TACE.
Sequence of Disintegrin and metalloproteinase domain-containing protein 17 (Sus scrofa, UniProt O77636) (O77636 whole entry, the tested form may be a part): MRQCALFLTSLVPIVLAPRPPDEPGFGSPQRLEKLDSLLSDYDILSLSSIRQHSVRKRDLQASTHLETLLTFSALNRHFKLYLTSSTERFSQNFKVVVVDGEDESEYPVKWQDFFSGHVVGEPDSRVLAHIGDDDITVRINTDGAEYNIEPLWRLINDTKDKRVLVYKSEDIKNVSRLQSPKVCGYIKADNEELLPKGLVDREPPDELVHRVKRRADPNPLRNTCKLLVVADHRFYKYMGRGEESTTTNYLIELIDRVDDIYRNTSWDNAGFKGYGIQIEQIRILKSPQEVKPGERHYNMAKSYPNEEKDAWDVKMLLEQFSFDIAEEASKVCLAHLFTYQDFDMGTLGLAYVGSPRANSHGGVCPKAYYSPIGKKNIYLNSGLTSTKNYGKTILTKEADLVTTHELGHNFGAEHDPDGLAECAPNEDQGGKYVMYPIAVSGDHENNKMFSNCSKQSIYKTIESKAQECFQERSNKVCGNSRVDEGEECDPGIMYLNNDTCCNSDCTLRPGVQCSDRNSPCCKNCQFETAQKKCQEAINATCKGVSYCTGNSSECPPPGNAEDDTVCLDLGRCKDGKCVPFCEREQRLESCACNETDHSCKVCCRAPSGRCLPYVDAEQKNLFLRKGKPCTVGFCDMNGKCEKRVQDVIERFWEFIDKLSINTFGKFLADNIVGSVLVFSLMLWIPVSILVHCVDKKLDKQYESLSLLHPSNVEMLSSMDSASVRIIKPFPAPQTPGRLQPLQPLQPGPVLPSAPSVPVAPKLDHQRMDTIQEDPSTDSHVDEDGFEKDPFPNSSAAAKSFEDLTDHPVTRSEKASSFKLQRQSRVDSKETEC
The test system of data set [17] is Mus musculus. The experiment in a line: Inhibition of TNFalpha production in mouse at 100 mg/kg, po after 1 hr. Format: functional.
Data set [18] in a line: Bioavailability in rat. Format: ADME, organism-based. The following applies: in vivo.
The target of data set [19] is T1, Disintegrin and metalloproteinase domain-containing protein 17. The experiment in a line: Inhibition of TACE by cell free assay.
The nature of data set [20]: Half life in rat LPS model. Format: ADME, organism-based. The following applies: in vivo.
Data set [21] relates to THP-1. Nature of the data set: Inhibition of LPS-induced TNFalpha production in human THP1 cells. Format: functional, cell-based.
Data set [22] deals with 72 kDa type IV collagenase (Homo sapiens, UniProt P08253). Nature of the data set: Inhibition of MMP2.
Sequence of 72 kDa type IV collagenase (P08253 whole entry): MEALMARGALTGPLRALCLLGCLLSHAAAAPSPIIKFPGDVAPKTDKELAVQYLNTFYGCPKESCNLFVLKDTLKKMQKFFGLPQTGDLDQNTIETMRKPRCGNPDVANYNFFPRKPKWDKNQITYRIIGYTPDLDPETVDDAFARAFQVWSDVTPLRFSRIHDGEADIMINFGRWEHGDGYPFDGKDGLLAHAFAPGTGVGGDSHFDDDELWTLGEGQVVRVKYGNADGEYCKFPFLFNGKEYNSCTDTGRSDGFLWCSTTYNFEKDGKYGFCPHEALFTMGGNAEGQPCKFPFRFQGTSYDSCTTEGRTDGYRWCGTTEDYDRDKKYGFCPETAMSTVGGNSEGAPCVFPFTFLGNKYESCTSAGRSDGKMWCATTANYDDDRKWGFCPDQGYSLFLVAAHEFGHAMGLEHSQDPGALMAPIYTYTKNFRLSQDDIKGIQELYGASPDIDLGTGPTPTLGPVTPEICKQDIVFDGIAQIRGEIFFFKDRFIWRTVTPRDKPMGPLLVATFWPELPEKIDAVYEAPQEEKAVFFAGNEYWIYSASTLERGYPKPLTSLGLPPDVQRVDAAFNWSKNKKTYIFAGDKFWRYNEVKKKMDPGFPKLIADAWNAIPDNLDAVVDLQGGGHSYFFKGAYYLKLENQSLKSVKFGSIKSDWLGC
Data set [23] has as its target Matrix metalloproteinase-9 (Homo sapiens, UniProt P14780). The experiment in a line: Inhibition of MMP9.
Data set [24] can be described thus: Fraction unbound in human serum. The class given is ADME, cell-free.

The structures appear in SMILES notation.

T1 sequence (P78536 whole entry, the tested form may be a part): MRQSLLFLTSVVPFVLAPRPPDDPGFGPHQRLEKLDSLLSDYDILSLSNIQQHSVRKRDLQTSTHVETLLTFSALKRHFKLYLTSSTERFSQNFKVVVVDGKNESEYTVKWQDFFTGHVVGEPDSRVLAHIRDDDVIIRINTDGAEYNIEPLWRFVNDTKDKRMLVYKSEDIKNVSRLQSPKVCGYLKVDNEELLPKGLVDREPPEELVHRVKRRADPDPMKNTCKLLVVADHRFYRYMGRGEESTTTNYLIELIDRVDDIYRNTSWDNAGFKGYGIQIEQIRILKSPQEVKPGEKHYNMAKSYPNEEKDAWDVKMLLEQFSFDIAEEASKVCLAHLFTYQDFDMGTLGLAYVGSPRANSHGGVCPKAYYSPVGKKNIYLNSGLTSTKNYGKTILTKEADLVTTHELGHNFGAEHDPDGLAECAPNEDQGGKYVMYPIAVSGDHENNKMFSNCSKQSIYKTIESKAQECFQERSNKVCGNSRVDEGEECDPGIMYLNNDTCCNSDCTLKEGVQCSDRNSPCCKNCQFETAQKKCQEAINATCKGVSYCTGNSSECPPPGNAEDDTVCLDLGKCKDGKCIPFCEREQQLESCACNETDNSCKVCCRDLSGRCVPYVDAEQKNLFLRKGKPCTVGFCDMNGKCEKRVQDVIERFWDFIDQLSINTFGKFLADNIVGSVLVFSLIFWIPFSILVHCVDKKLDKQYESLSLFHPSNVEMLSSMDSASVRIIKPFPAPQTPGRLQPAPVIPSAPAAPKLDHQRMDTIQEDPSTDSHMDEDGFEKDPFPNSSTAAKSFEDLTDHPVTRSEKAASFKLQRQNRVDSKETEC
Sequence of Matrix metalloproteinase-9 (P14780 whole entry): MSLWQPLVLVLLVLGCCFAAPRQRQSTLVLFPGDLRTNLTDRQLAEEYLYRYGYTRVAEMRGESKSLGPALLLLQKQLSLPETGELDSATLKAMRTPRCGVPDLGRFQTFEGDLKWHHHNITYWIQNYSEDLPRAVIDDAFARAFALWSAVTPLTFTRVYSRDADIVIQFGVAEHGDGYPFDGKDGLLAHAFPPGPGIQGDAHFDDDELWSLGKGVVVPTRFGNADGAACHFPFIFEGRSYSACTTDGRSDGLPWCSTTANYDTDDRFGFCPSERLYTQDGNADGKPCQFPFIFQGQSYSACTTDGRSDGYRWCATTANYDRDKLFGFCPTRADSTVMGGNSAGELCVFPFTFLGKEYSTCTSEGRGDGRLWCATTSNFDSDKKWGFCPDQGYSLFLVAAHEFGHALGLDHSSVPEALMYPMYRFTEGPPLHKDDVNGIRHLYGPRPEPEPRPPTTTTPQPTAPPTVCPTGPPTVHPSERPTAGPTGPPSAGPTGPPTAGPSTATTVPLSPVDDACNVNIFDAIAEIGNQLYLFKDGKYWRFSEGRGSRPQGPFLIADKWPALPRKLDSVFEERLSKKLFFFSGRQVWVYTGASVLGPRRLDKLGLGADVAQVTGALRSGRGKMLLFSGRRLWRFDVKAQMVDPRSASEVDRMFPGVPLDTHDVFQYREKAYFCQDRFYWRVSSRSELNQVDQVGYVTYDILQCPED

Take `CC(C)C[C@@H](C(=O)NN(CC(C)C)S(C)(=O)=O)[C@H](C/C=C/c1ccccc1)C(=O)NO`: in data set [1], half-maximal inhibition (IC50) required 3 nM.

In the case of `CC#CCOc1ccc(S(=O)(=O)N2Cc3ccc(CO)cc3N(C(C)=O)CC2C(=O)NO)cc1` (stereo unspecified), the Selectivity ratio in data set [2] is more than 40.

`CC1(C)SCCN(S(=O)(=O)c2ccc(Oc3ccncc3)cc2)[C@H]1C(=O)NO` [PRINOMASTAT]: the IC50 in data set [1] was 22 nM. This lies in the double-digit nanomolar range.

As for `CNC(=O)[C@@H](NC(=O)[C@H](c1ccc(OC)cc1)[C@H](CO)C(=O)NO)C(C)(C)C`, the half-inhibitory concentration (IC50) in [3] came out at 56 nM.

Take `O=C(NO)[C@@H]1CC[C@H](O)CN1S(=O)(=O)c1ccc(OCc2ccccc2I)cc1`: in [1], the 50% inhibitory concentration (IC50) turned out to be 110000 nM.

As to `Cc1cc(COc2ccc(N3CCC([C@H](NC(=O)OC(C)(C)C)C(=O)NO)C3=O)cc2)c2ccccc2n1` (stereo partly specified), the Selectivity ratio in [2] stood at 700; in [4], 300; in data set [5], 300.

`CC(C)Cc1ccc([C@]2(C)CCN([C@H](C)C(=O)NO)C2=O)cc1` returned an IC50 in data set [1] of 1000 nM.

On to `CC#CCOc1ccc(S(=O)(=O)N(C)c2c(C(=O)NO)cnc3c(OC)cccc23)cc1`, for which the Selectivity ratio in data set [2] worked out at 50.

Turning to `C[C@H](C(=O)NO)N1CC[C@@](C)(c2ccc(OCc3cc(C(F)(F)F)cc(C(F)(F)F)c3)cc2)C1=O`, the IC50 in [1] turned out to be 2 nM. The Selectivity ratio in data set [2], in [4] and in [5] was more than 1000 each time.

In the case of `C=CCONC(=O)[C@@H]1[C@@H](C)N(C(C)=O)CCN1S(=O)(=O)c1ccc(OCc2ccc(C)cc2)cc1`, the 50% inhibitory concentration (IC50) in data set [6] worked out at 3 nM; in data set [1] it was 1 nM; in [7], 1600 nM.

Regarding `COc1ccc(S(=O)(=O)N(C)c2c(C)cc(Br)cc2C(=O)NO)cc1`, the IC50 in [6] amounted to 11 nM.

For `CC#CCOc1ccc(S(=O)(=O)N(C)c2c(N3CCN(C)CC3)ccc(Br)c2C(=O)NO)cc1`, in [1], the midpoint of inhibition, the IC50, lay at 25 nM. In data set [2], the Selectivity ratio stood at 500. Also, in data set [8], 50 mg/kg produced 100% inhibition in vivo.

Turning to `Cc1cc(COc2ccc([C@]3(N)CCN([C@H](CC(C)C)C(=O)NO)C3=O)cc2)c2ccccc2n1`, the IC50 in data set [9] was 90 nM; in data set [1] it was 0.2 nM. In addition, the bioavailability is 16% in data set [10] and 54% in [13]. This molecule also gave a half-life in [11] of 3 h. The molecule also displayed an ED50 in data set [12] of 6 mg/kg.

In [14], `CCC(=O)[C@@H](NC(=O)[C@H](c1ccc(OC)cc1)[C@H](CO)C(=O)NO)C(C)(C)C` yielded an ED50 of 1 mg/kg.

For `Cc1cc(COc2ccc(N3CC[C@](C)(CC(=O)NO)C3=O)cc2)c2ccccc2n1`, the IC50 in [15] worked out at 1570 nM; in data set [1], 1 nM.

Take `Cc1cc(COc2ccc(N3C(C(=O)NO)CCCS3(=O)=O)cc2)c2ccccc2n1` (stereo unspecified): the Selectivity ratio in data set [2], in data set [4] and in [5] was more than 1000 throughout.

Turning to `CC#CCOc1ccc([S+]([O-])C(CCCCCC)C(=O)NO)cc1` (stereo unspecified), the IC50 in [1] was 4 nM.

On to `COc1cc(COc2ccc3c(c2)NCCN(C(CCCCNS(C)(=O)=O)C(=O)NO)S3(=O)=O)cc(OC)c1` (stereo unspecified), for which, in data set [16], the inhibition constant (Ki) is 5 nM.

As to `Cc1cc(COc2ccc(S(=O)(=O)CC3C(C(=O)NO)CCN3C)cc2)c2ccccc2n1` (stereo unspecified), the figures for the IC50 in [9] and in [1] were 180 nM and 1 nM, respectively. The Selectivity ratio in [2], in data set [4] and in data set [5] was 2000 throughout.

Consider `C[C@H](C(=O)NO)N1CC[C@@](C)(c2ccc(Oc3ccccc3)cc2)C1=O`, for which the midpoint of inhibition in data set [1], the IC50, lay at 185 nM. That is a sub-micromolar value.

Turning to `Cc1cc(OCc2ccc(NC(=O)[C@H]3CCCC[C@@H]3C(=O)NO)cc2)c2ccccc2n1`, the IC50 in data set [9] is more than 50000 nM; in data set [1], 8 nM.

`CC1(C)SCCN(S(=O)(=O)c2ccc(OCC#CCO)cc2)[C@H]1C(=O)NO` displayed an IC50 in data set [1] of 440 nM.

Take `CC#CCOc1ccc(S(=O)(=O)N(C)c2c(C(=O)NO)cnc3onc(C)c23)cc1`: in [17], the inhibition in vivo at 100 mg/kg worked out at 95%.

`Cc1cc(COc2ccc(NC(=O)[C@@H]3[C@@H](C(=O)NO)CCCN3C)cc2)c2ccccc2n1`: the IC50 in data set [9] worked out at 20 nM; in data set [1] it was 6.2 nM.

For `Cc1cc(COc2ccc(C(=O)N[C@@H]3COCC[C@@H]3C(=O)NO)cc2)c2ccccc2n1`, the IC50 in [9] was 130 nM; in data set [1] it was less than 1 nM. The molecule further showed a bioavailability in data set [18] of 58%. The Selectivity ratio in data set [2] and in data set [4] was more than 30000 each time.

For `CCC[C@@H]([C@@H](CC(C)C)C(=O)C[C@@H](CCCN/C(N)=N/[N+](=O)[O-])C(=O)Nc1nccs1)N(O)C=O`, the IC50 in data set [19] worked out at 4.3 nM. This lies in the single-digit nanomolar range.

In the case of `C[C@H](C(=O)NO)N1CC[C@@](C)(c2ccc(-c3ccccc3)cc2)C1=O`, the IC50 in data set [1] is 13000 nM.

Molecule `CC[C@H](C)[C@H](NC(=O)[C@H](CC(C)C)[C@H](C(C)C)N(O)C=O)C(=O)Nc1ccccn1` had a 50% inhibitory concentration (IC50) in data set [19] of 40 nM. In data set [20], this molecule displayed a half-life of more than 12 h.

As for `CNC(=O)[C@H](Cc1ccc(NC(=N)N)cc1)NC(=O)[C@H](CC(C)C)[C@H](CCCc1ccccc1)C(=O)NO`, the results for the IC50 in data set [6], in data set [21] and in [7] were 0.1 nM, 130 nM and 6 nM, respectively.

As for `C/C=C/C=C/C=C1/C=C(CCC(=O)NO)C(=O)OC1`, the half-inhibitory concentration (IC50) came out at 6 nM in data set [22], 23 nM in data set [23] and 28 nM in data set [1].

With `C[C@H](C(=O)NO)N1CC[C@@](C)(c2ccc(OCc3ccccc3)cc2)C1=O`, in data set [1], inhibition was half-maximal at 4 nM (IC50).

As to `CNC(=O)[C@@H](NC(=O)[C@H](c1ccc(C)cc1)[C@H](CO)C(=O)NO)C(C)(C)C`, in [3], the IC50 is 141 nM.

Take `CC#CCOc1ccc(S(=O)(=O)CC2(C(=O)NO)CCN(S(=O)(=O)C(C)C)CC2)cc1`: in data set [4], the Selectivity ratio came out at 230.

In data set [1], `Cc1cc(COc2ccc(C(=O)NC3(C)C(=O)NC(=O)NC3=O)cc2)c2ccccc2n1` had a 50% inhibitory concentration (IC50) of 0.026 nM.

In data set [16], `Cc1cc(COc2ccc(C(=O)NCCC(=O)NO)cc2)c2ccccc2n1` displayed an IC50 of 1 nM.

Regarding `CCOP(=O)(N[C@@H](CC(C)C)C(=O)NO)c1ccc(OC)cc1` (stereo partly specified), the IC50 in data set [1] was found to be 76 nM.

Molecule `Cc1cc(COc2ccc(C3(C)C(=O)NC(=O)NC3=O)cc2)c2ccccc2n1` came in with an IC50 in data set [1] of 1 nM.

Molecule `Cc1cc(COc2ccc([C@]3(C)CCN([C@H](C)C(=O)NO)C3=O)cc2)c2ccccc2n1` yielded a half-maximal inhibitory concentration (IC50) in data set [9] of 350 nM. Besides, the fraction unbound in data set [24] amounted to 0.036.

By IC50 is commonly meant the concentration needed to halve the response being measured. A word on the inhibition in vivo: it is the relative decrease from the control value, in per cent. A higher inhibition in vivo goes with strong suppression. Usually bioavailability stands for dose-corrected exposure relative to a reference, in per cent. Low readings indicate little systemic uptake, high ones much systemic uptake. As usually defined, the half-life is the time needed for the level to fall by half in the phase considered. Broadly, the ED50 is the midpoint of the dose-response relation. A low value points to greater potency. As usually defined, the Ki is the equilibrium dissociation constant of an inhibitor or competing ligand from its target. As usually defined, the fraction unbound is the share of the substance not bound to proteins or other matrix. Low values mean extensive binding, high ones weak binding.

Values taken from ChEMBL document CHEMBL1140868, “Current perspective of TACE inhibitors: a review” (Bioorg Med Chem, 2009).
